Assay results published in patent publication US20110224136A1, “INHIBITORS OF DIACYLGLYCEROL ACYLTRANSFERASE” (priority 2008, published 2011).

Biological target: T1, human DGAT1 enzyme (Homo sapiens, UniProt O75907)
T1 construct: made in house; host or cells: Sf9 insect cells (microsomes)
T1 sequence (O75907 1-488): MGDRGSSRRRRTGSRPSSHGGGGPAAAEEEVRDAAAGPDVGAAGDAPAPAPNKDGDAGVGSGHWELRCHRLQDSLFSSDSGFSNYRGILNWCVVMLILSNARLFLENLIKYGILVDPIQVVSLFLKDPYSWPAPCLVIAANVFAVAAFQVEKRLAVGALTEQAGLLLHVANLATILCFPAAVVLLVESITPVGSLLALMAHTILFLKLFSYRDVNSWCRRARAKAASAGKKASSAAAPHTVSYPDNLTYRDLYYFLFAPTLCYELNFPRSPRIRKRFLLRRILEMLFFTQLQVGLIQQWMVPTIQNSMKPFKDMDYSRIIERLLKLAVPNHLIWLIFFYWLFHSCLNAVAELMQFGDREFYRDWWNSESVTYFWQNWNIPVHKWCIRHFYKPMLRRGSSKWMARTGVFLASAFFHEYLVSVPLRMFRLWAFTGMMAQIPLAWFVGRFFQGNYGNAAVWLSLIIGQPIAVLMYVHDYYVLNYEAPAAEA
Assay: in vitro DGAT1 inhibition assay (microsomes, [14C]-palmitoyl-CoA, scintillation proximity)
Assay type: biochemical
Conditions: human DGAT1 expressed in Sf9 insect cell microsomes; 2 hours at room temperature; read-out: hDGAT IC50
Protocol: A useful assay to determine the DGAT inhibitory activity of the inventive compounds is described below:
The in vitro assay to identify DGAT1 inhibitors uses human DGAT1 enzyme expressed in Sf9 insect cells prepared as microsomes. The reaction is initiated by the addition of the combined substrates 1,2-dioleoyl-sn-glycerol and [^14C]-palmitoyl-CoA and incubated with test compounds and microsomal membranes for 2 hours at room temperature. The assay is stopped by adding 0.5 mg wheat germ agglutinin beads in assay buffer with 1% Brij-35 and 1% 3-cholamidopropyldimethyl-ammonio-1-propane sulfonate. Plates are sealed with TopSeal and incubated for 18 hours to allow the radioactive triglyceride product to come into proximity with the bead. Plates are read on a TopCount instrument.
Percent inhibition was calculated as the percent of (test compound inhibition minus non-specific binding) relative to (total binding minus non-specific binding). IC50 values were determined by curve fitting the data to a Sigmoidal dose-response in GraphPad Prism utilizing the following equation:
Y=A+(B−A)/(1+10̂((Log IC50−X))),
where A and B are the bottom and top of the curve (highest and lowest inhibition), respectively, and X is the logarithm of concentration.

| IC50 [nM] | Compound |
| --- | --- |
| 11 to 100 | CC1CCCN(c2nc(C(F)(F)F)c(C(=O)Nc3ccc(N4CCN(C(=O)Nc5ccccc5F)CC4)cn3)o2)C1 (stereo not drawn) [Compound 236, N-(5-(4-(2-fluorophenylcarbamoyl)piperazin-1-yl)pyridin-2-yl)-2-(3-methylpiperidin-1-yl)-4-(trifluoromethyl)oxazole-5-carboxamide] |
| 101 to 500 | O=C(O)C[C@H]1CC[C@H](c2ccc(NC(=O)c3oc(N4CCC(c5ccccc5)CC4)nc3C(F)(F)F)cc2)CC1 [Compound 216, 2-((1r,4r)-4-(4-(2-(4-phenylpiperidin-1-yl)-4-(trifluoromethyl)oxazole-5-carboxamido)phenyl)cyclohexyl)acetic acid] |
| 101 to 500 | Cc1cc(N2CCN(C(=O)Nc3ccccc3F)CC2)ncc1NC(=O)c1oc(N2CCCC(C)C2)nc1C(F)(F)F (stereo not drawn) [Compound 321, N-(6-(4-(2-fluorophenylcarbamoyl)piperazin-1-yl)-4-methylpyridin-3-yl)-2-(3-methylpiperidin-1-yl)-4-(trifluoromethyl)oxazole-5-carboxamide] |
| 11 to 100 | Cc1ccccc1NC(=O)c1ccc(-c2ccc(NC(=O)c3oc(N4CCCC(C)C4)nc3C(F)(F)F)nc2)cc1 (stereo not drawn) [Compound 227, 2-(3-methylpiperidin-1-yl)-N-(5-(4-(o-tolylcarbamoyl)phenyl)pyridin-2-yl)-4-(trifluoromethyl)oxazole-5-carboxamide] |
| 11 to 100 | CC1CCCN(c2nc(C(F)(F)F)c(C(=O)Nc3ccc(N4CCN(C(=O)Nc5ccccc5C(=O)O)CC4)nc3)o2)C1 (stereo not drawn) [Compound 300, 2-(4-(5-(2-(3-methylpiperidin-1-yl)-4-(trifluoromethyl)oxazole-5-carboxamido)pyridin-2-yl)piperazine-1-carboxamido)benzoic acid] |
| 11 to 100 | O=C(O)c1ccccc1NC(=O)N1CCN(c2ccc(NC(=O)c3oc(N4CCC(c5ccccc5)CC4)nc3C(F)(F)F)cn2)CC1 [Compound 292, 2-(4-(5-(2-(4-phenylpiperidin-1-yl)-4-(trifluoromethyl)oxazole-5-carboxamido)pyridin-2-yl)piperazine-1-carboxamido)benzoic acid] |
| 101 to 500 | O=C(Nc1ccc(N[C@H]2CCN(C(=O)Nc3ccccc3F)C2)nc1)c1oc(N2CCC(c3ccccc3)CC2)nc1C(F)(F)F [Compound 257, (S)—N-(6-(1-(2-fluorophenylcarbamoyl)pyrrolidin-3-ylamino)pyridin-3-yl)-2-(4-phenylpiperidin-1-yl)-4-(trifluoromethyl)oxazole-5-carboxamide] |
| 11 to 100 | Cc1ccccc1NC(=O)c1ccc(-c2ccc(NC(=O)c3oc(N4CCCC(C)C4)nc3C(F)(F)F)cc2)nc1 (stereo not drawn) [Compound 242, 2-(3-methylpiperidin-1-yl)-N-(4-(5-(o-tolylcarbamoyl)pyridin-2-yl)phenyl)-4-(trifluoromethyl)oxazole-5-carboxamide] |
| 101 to 500 | O=C(Nc1ccc(N2CCN(C(=O)Nc3ccccc3F)CC2)nc1)c1oc(N2CCC(O)(c3ccccc3)CC2)nc1C(F)(F)F [Compound 324, N-(6-(4-(2-fluorophenylcarbamoyl)piperazin-1-yl)pyridin-3-yl)-2-(4-hydroxy-4-phenylpiperidin-1-yl)-4-(trifluoromethyl)oxazole-5-carboxamide] |
| 101 to 500 | CC1CCCN(c2nc(C(F)(F)F)c(C(=O)Nc3ccc(-c4ccc(C(=O)NCCC(=O)O)cc4)cc3)o2)C1 (stereo not drawn) [Compound 328, 3-(4′-(2-(3-methylpiperidin-1-yl)-4-(trifluoromethyl)oxazole-5-carboxamido)biphenyl-4-ylcarboxamido)propanoic acid] |
| 101 to 500 | O=C(Nc1cnc(N2CCN(C(=O)Nc3ccccc3F)CC2)nc1)c1oc(N2CCC(c3ccccc3)CC2)nc1C(F)(F)F [Compound 327, N-(2-(4-(2-fluorophenylcarbamoyl)piperazin-1-yl)pyrimidin-5-yl)-2-(4-phenylpiperidin-1-yl)-4-(trifluoromethyl)oxazole-5-carboxamide] |
| 101 to 500 | O=C(Nc1ccc(N2CCN(C(=O)Nc3ccccc3F)CC2)nc1)c1oc(NC2CCN(Cc3ccccc3)C2)nc1C(F)(F)F (stereo not drawn) [Compound 307, 2-(1-benzylpyrrolidin-3-ylamino)-N-(6-(4-(2-fluorophenylcarbamoyl)piperazin-1-yl)pyridin-3-yl)-4-(trifluoromethyl)oxazole-5-carboxamide] |
| 101 to 500 | C[C@@H]1CN(C(=O)Nc2ccccc2F)CCN1c1ccc(NC(=O)c2oc(N3CCC(c4ccccc4)CC3)nc2C(F)(F)F)cn1 [Compound 310, (R)—N-(6-(4-(2-fluorophenylcarbamoyl)-2-methylpiperazin-1-yl)pyridin-3-yl)-2-(4-phenylpiperidin-1-yl)-4-(trifluoromethyl)oxazole-5-carboxamide] |
| 11 to 100 | C[C@@H]1CN(c2ccc(NC(=O)c3oc(N4CCC(c5ccccc5)CC4)nc3C(F)(F)F)cn2)CCN1C(=O)Nc1ccccc1F [Compound 266] |
| 11 to 100 | O=C(Nc1ccc(N2CCN(C(=O)[C@H]3CC[C@H](C(=O)O)CC3)CC2)nc1)c1oc(N2CCC(c3ccccc3)CC2)nc1C(F)(F)F [Compound 296, trans-4-(4-(5-(2-(4-phenylpiperidin-1-yl)-4-(trifluoromethyl)oxazole-5-carboxamido)pyridin-2-yl)piperazine-1-carbonyl)cyclohexanecarboxylic acid] |
| 11 to 100 | O=C(Nc1ccc(N2CCN(C(=O)Nc3ccccc3F)CC2)nc1)c1oc(N2CCC(c3ccc(Cl)cc3)CC2)nc1C(F)(F)F [Compound 273, 2-(4-(4-chlorophenyl)piperidin-1-yl)-N-(6-(4-(2-fluorophenylcarbamoyl)piperazin-1-yl)pyridin-3-yl)-4-(trifluoromethyl)oxazole-5-carboxamide] |
| 101 to 500 | O=C(CN1CCN(c2ccc(NC(=O)c3oc(N4CCC(c5ccccc5)CC4)nc3C(F)(F)F)cn2)CC1)c1ccccc1F [Compound 289, N-(6-(4-(2-(2-fluorophenyl)-2-oxoethyl)piperazin-1-yl)pyridin-3-yl)-2-(4-phenylpiperidin-1-yl)-4-(trifluoromethyl)oxazole-5-carboxamide] |
| 101 to 500 | CC1CCCN(c2nc(C(F)(F)F)c(C(=O)Nc3ccc(N[C@H]4CCN(C(=O)c5ccccc5F)C4)nc3)o2)C1 (stereo partly drawn) [Compound 260, N-(6-((S)-1-(2-fluorobenzoyl)pyrrolidin-3-ylamino)pyridin-3-yl)-2-(3-methylpiperidin-1-yl)-4-(trifluoromethyl)oxazole-5-carboxamide] |
| 101 to 500 | O=C(Nc1ccc(N2CCN(C(=O)Nc3ccccc3F)CC2)nc1)c1oc(N2CCC(F)(c3ccccc3)CC2)nc1C(F)(F)F [Compound 325, N-(6-(4-(2-fluorophenylcarbamoyl)piperazin-1-yl)pyridin-3-yl)-2-(4-fluoro-4-phenylpiperidin-1-yl)-4-(trifluoromethyl)oxazole-5-carboxamide] |
| 101 to 500 | Cc1ccccc1NC(=O)c1ccc(-c2ccc(NC(=O)c3sc(CN(C)c4ccccc4)nc3C(F)(F)F)nc2)cc1 [Compound 250, 2-((methyl(phenyl)amino)methyl)-N-(5-(4-(o-tolylcarbamoyl)phenyl)pyridin-2-yl)-4-(trifluoromethyl)thiazole-5-carboxamide] |
| 11 to 100 | O=C(Nc1ccc(N2CCN(C(=O)Nc3ccccc3F)CC2)nc1)c1oc(N2CCc3ccccc3C2)nc1C(F)(F)F [Compound 335, 2-(3,4-dihydroisoquinolin-2(1H)-yl)-N-(6-(4-(2-fluorophenylcarbamoyl)-piperazin-1-yl)pyridin-3-yl)-4-(trifluoromethyl)oxazole-5-carboxamide] |
| 101 to 500 | O=C(Nc1ccc(N2CCN(C(=O)Nc3ccccc3F)CC2)nc1)c1oc(N2CCN(c3ccccc3F)CC2)nc1C(F)(F)F [Compound 336, 2-(4-(2-fluorophenyl)piperazin-1-yl)-N-(6-(4-(2-fluorophenylcarbamoyl)-piperazin-1-yl)pyridin-3-yl)-4-(trifluoromethyl)oxazole-5-carboxamide] |
| 11 to 100 | O=C(Nc1ccc(N2CCN(C(=O)Nc3ccccc3F)CC2)nc1)c1oc(N2CCC(c3cccc(F)c3)C2)nc1C(F)(F)F (stereo not drawn) [Compound 279, 2-(3-(3-fluorophenyl)pyrrolidin-1-yl)-N-(6-(4-(2-fluorophenylcarbamoyl)piperazin-1-yl)pyridin-3-yl)-4-(trifluoromethyl)oxazole-5-carboxamide] |
| 11 to 100 | CN(CCc1ccccc1)c1nc(C(F)(F)F)c(C(=O)Nc2ccc(N3CCN(C(=O)Nc4ccccc4F)CC3)nc2)o1 [Compound 316, N-(6-(4-(2-fluorophenylcarbamoyl)piperazin-1-yl)pyridin-3-yl)-2-(methyl(phenethyl)amino)-4-(trifluoromethyl)oxazole-5-carboxamide] |
